Data reported in PMC6368365, “Didehydro-Cortistatin A Inhibits HIV-1 by Specifically Binding to the Unstructured Basic Region of Tat” (mBio, 2019).

Key:
Trp^11 of Tat protein = biological target: T1, Trp^11 of Tat protein (Human immunodeficiency virus type 1 group M subtype B, UniProt P69697); experiment: Trp fluorescence assay of recombinant Tat; format: binding, HIV-1; details: for effect on intrinsic Trp fluorescence of Tat: compound/Tat ratio of 7.5/1
T1 construct: pTatC6H-1 (NIH AIDS Reagent Program) plasmid encoding C-terminal 6xHistidine Tat1-86 (HXB3, subtype B); made in house; host or cells: E. coli BL21 (plasmid pTatC6H-1, NIH AIDS Reagent Program)
T1 sequence (P69697 whole entry): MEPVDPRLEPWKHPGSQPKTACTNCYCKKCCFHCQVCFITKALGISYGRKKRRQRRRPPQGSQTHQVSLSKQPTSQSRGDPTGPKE
Source text: Next, we investigated whether dCA mediated conformational changes in Tat. NMR studies have reported the fluorescence of Tat’s unique Trp^11 to be highly sensitive to conformational modifications ([2], [15]). As such, we assessed Tat fluorescence between wavelengths of 310 nm and 410 nm (Fig. 5A, left).
(§1) FIG 5 dCA stabilizes Tat structure. (A) Trp fluorescence assays. (Left) Schematic of the assay. (Center) DMSO, dCA (7.5× Tat concentration) or raltegravir (Ralt.; 7.5× Tat concentration) was incubated with Tat. The fluorescence of the Trp^11 of Tat protein was measured at the indicated wavelengths. Acrylamide (250 mM) was used as a quenching control of Tat fluorescence. (Right) Peak absorbance (λmax) versus increasing fold ratios of compounds to Tat protein. Data are representative of n = 3 independent experiments. (B) DARTS assays. Tat was incubated with DMSO or dCA, at increasing concentrations, in the presence of increasing concentrations of proteinase K (PK). […] Data are representative of n = 2 independent experiments. (C) Steady state of Tat in the presence of dCA in vivo. HeLa-CD4-LTR-Luc cells were incubated with recombinant Tat and then washed and incubated with the indicated compounds for 6 hours. […] (Left) Western blot representative of n = 4 independent experiments. MG132 was used as a positive control of Tat protection from degradation, and raltegravir was used as a negative control. (Right) Densitometry of the Tat band normalized to the actin band. Results represent the mean ± SEM from n = 4 independent experiments. Statistical significance was determined using one-way ANOVA with post hoc Tukey’s test. ns, not significant; ***, P < 0.0001; **, P < 0.001.
Recombinant Tat (2.5 μM) was incubated with different concentrations of dCA or raltegravir in a 96-well plate. The solution was excited at 280 nm, and the emission of Trp fluorescence was read from 310 to 410 nm. The background induced by the compounds alone or buffer of dilution was subtracted from the Trp signal. Acrylamide (250 mM) was used as a quencher of the fluorescence.

intracellular Tat = biological target: T2, intracellular Tat (Human immunodeficiency virus type 1 group M subtype B, UniProt P69697); experiment: Steady state of recombinant Tat in HeLa-CD4-LTR-Luc cells (Western blot); format: cell-based, HIV-1; details: 6 hours with compound, MG132 10 μM
T2 construct: pTatC6H-1 (NIH AIDS Reagent Program) plasmid encoding C-terminal 6xHistidine Tat1-86 (HXB3, subtype B); made in house; host or cells: E. coli BL21 (plasmid pTatC6H-1, NIH AIDS Reagent Program)
T2 sequence (P69697 whole entry): as above
Description: as §1
Next, we determined the half-life of recombinant Tat in HeLa-CD4-LTR-Luc cells in the presence of dCA (Fig. 5C). We incubated recombinant Tat with cells for 4 hours, and after several washes to remove extracellular Tat protein, we incubated cells with DMSO, dCA, or raltegravir for an additional 6 hours. Western blotting with anti-His antibody was performed to reveal intracellular Tat. […]
Half-life of Tat in vivo. […] Total protein concentration was assessed by Bradford assay and Tat protein in each condition determined by western blot with an anti-His antibody at 1:1500 dilution (Thermofisher). […]

Tat-TAR interaction = Tat-TAR interaction (Human immunodeficiency virus type 1 group M subtype B, UniProt P69697); experiment: EMSA of full-length Tat with TAR; format: biochemical, HIV-1; parameters: pTatC6H-1 (NIH AIDS Reagent Program) plasmid encoding C-terminal 6xHistidine Tat1-86 (HXB3, subtype B); made in house; host or cells: E. coli BL21 (plasmid pTatC6H-1, NIH AIDS Reagent Program); details: radiolabeled TAR
Sequence of Tat-TAR interaction (P69697 whole entry, the tested form may be a part): as the sequence (P69697 whole entry) above
Source text: Tat amplifies viral mRNA expression by binding through its basic domain to TAR, the 5′-terminal region stem-bulge-loop structure of HIV mRNAs, and recruits several cofactors to the viral promoter to promote transcriptional elongation. We investigated whether dCA could compete with TAR for Tat binding. For this purpose, we performed EMSA with radiolabeled TAR and recombinant Tat in the presence or absence of dCA (Fig. 6A).
EMSA with full-length Tat, a protocol similar to that of Das et al. was performed ([60]). Details on the EMSA with Tat’s basic peptide are provided in Text S1.
EMSA With full-length Tat: similar protocol was performed as in Das et al. (60). With Tat’s basic peptide: the 59-nucleotides TAR RNA was prepared by in vitro T7 RNA polymerase transcription according to Maxiscript kit manufacturer’s instructions (Ambion). The radiolabeled RNA was purified by urea gel followed by phenol-chloroform extraction. Binding reaction mixture (25 µL of 10 mM Tris HCL pH 7.5, NaCl 70 mM, EDTA 0.2 mM, NP40 0.01 %, Glycerol 5 % and tRNA 100 ng/µL) contained traces of radiolabeled TAR RNA and basic peptide (Pep B, residues 45-59) (or peptide C “Pep C”, residues 69-83, as negative control) in combination or not with compounds or cold TAR. The mixture was incubated for 10 min at room temperature (RT). […]

| SMILES | λmax of Tat Trp fluorescence (Trp^11 of Tat protein; compound/Tat ratio 7.5/1, Tat alone 360 nm) [nm] | effect on intrinsic Trp fluorescence of Tat (Trp^11 of Tat protein) | I330/350 ratio of Tat Trp fluorescence (Trp^11 of Tat protein; dCA/Tat ratio of 7.5/1, Tat alone 0.73) | percentage of remaining Tat (intracellular Tat) [%] | inhibition of Tat-TAR interaction (EMSA) (Tat-TAR interaction) |
| --- | --- | --- | --- | --- | --- |
| CN(C)C1CC23CCC4(O2)C(=CCC2(C)C(c5ccc6ccncc6c5)=CCC24)C=C3C(O)C1O (centres unmarked) [dCA, didehydro-cortistatin A] | 350 | decreased intensity of the Trp fluorescence | 0.893 | 40 | inhibited the interaction of Tat with TAR in a dose-responsive manner |
| Cc1nnc(C(=O)NC(C)(C)c2nc(C(=O)NCc3ccc(F)cc3)c(O)c(=O)n2C)o1 [raltegravir, reference compound] |  | no effect on the intrinsic fluorescence of Tat |  | 28 | no inhibitory activity |
